# Patent US20110097274A1, “Carbon-11 and fluorine-18 labeled radioligands for positron emission tomography (PET) imaging for the brain serotonin transporters” (priority 2002, published 2011)
# pKd: −log10 of the molar value. “And” between values parts separate entries of the source, which are not always exact repeats. Identical values can stand only once.
# Columns and labels:
# [1] = Biodistribution of labeled radioligands in male Sprague-Dawley rats; type: in vivo; settings: mean ± SD, n = 3
# Source text: Appropriately labeled compounds were studied in animals to assess their binding characteristics in the brain. Procedures for these biodistribution studies are as follows. […] The brain regions (cerebellum, hippocampus, striatum, frontal cortex, thalamus and hypothalamus), along with samples of blood and part of the tail, were removed, weighed, and counted in a Packard Cobra II gamma counter. The percent injected dose (% ID) of the decay- and tail-corrected activity in the brain regions and blood were calculated based upon C-11 standards prepared from the injection solution, and the % ID/g were calculated using the tissue weights.
# [2] = Experiment 5: plasma clearance of ^11C and ^18F labeled AFM, AFA, AFE in one baboon; type: in vivo; settings: one adult male baboon, n = 1 to 4 scans
# Method: (§1) General scanning methods were as described in Huang et al. (2002). Arterial input function was measured and corrected for metabolites.
# SERT [3] = assay: Experiment 5: PET brain imaging of ^11C and ^18F labeled AFM, AFA, AFE in one baboon; type: in vivo; settings: one adult male baboon, n = 1 to 4 scans, two-compartment model
# Method: as §1
# Activity distributed in the brain in accordance to the known density distribution pattern of SERT (Laruelle et al., 1988). […] Data were analyzed with a two-compartment model, using the metabolite-corrected arterial time-activity curve as input function. This analysis provided the regional distribution volumes (VT, mL/g).
# The nonspecific distribution volume, measured as the distribution volume of the cerebellum (a region with negligible SERT density) was in a similar range for all tracers (10 to 30 mL/g, Table 16).
# The specific to nonspecific partition coefficient, V3″, was calculated as the ratio of VT in the region of interest (ROI) to cerebellum VT minus one. V3″ provides a measure related to receptor parameters as follows: […]
# SERT [4] = settings: same baboon, one tissue compartment model
# Method: The animal was then injected with [^18F]AFM (2.60 mCi, 425 Ci/mmol, 1.51 μg) and scanned for 90 minutes. Analysis of the input function and brain uptake was performed as described in the previous section. […] Arterial activity was corrected for parent fraction to form the input function.
# Data were analyzed with a one tissue compartment model.
# [5] = Experiment 4: plasma analysis, [^11C]AFM and [^18F]AFM in the same baboon
# Method: The animal was then injected with [^18F]AFM (2.60 mCi, 425 Ci/mmol, 1.51 μg) and scanned for 90 minutes. […] Arterial activity was corrected for parent fraction to form the input function.
# SERT [6] = molecular target: T1, SERT (Homo sapiens, UniProt P31645); settings: cited from earlier work
# T1 construct: consistent with values previously measured in six healthy humans (Parsey et al., 2000); host or cells: living human brain (PET, values quoted from Parsey et al. 2000, Ginovart et al. 2001)
# [7] = humans, cited from earlier work; for Parent fraction in plasma at 30 minutes: literature
# SERT [8] = settings: literature; cited from earlier work
# T1 sequence (P31645 whole entry): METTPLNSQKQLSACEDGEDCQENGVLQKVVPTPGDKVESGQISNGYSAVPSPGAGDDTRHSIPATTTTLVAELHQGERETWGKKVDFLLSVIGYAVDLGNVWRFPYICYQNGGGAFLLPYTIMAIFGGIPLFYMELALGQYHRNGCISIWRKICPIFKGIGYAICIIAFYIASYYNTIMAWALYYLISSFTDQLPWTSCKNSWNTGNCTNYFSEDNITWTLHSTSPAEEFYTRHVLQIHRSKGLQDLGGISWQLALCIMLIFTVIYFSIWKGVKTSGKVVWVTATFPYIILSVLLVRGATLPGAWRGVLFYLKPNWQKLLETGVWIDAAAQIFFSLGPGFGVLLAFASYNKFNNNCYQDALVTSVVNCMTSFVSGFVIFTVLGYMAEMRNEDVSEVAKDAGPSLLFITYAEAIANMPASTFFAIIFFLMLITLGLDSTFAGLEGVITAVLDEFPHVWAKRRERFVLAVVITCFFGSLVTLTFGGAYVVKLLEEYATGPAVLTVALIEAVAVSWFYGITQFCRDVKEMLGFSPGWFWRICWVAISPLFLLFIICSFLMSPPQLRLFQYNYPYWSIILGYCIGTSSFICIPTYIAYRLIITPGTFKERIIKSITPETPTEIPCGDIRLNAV
compound,measurement,setting,value
"CN([11CH3])Cc1ccccc1Sc1ccc(CF)cc1N [[^11C]AFM, [^11C]2-[2-(Dimethylaminomethyl)phenylthio]-5-fluoromethylphenylamine]",% ID/g Blood,[1]; 10 min post-injection,0.37 ± 0.28 % ID/g
same,% ID/g Cerebellum,[1]; 10 min post-injection,0.40 ± 0.06 % ID/g
same,% ID/g Frontal Ctx.,[1]; 10 min post-injection,0.99 ± 0.25 % ID/g
same,% ID/g Hippocamp.,[1]; 10 min post-injection,0.59 ± 0.14 % ID/g
same,% ID/g Hypothal.,[1]; 10 min post-injection,0.75 ± 0.19 % ID/g
same,% ID/g Striatum,[1]; 10 min post-injection,0.72 ± 0.17 % ID/g
same,% ID/g Thalamus,[1]; 10 min post-injection,0.79 ± 0.15 % ID/g
same,% ID/g Blood,[1]; 30 min post-injection,0.28 ± 0.01 % ID/g
same,% ID/g Cerebellum,[1]; 30 min post-injection,0.41 ± 0.11 % ID/g
same,% ID/g Frontal Ctx.,[1]; 30 min post-injection,1.31 ± 0.28 % ID/g
same,% ID/g Hippocamp.,[1]; 30 min post-injection,0.95 ± 0.29 % ID/g
same,% ID/g Hypothal.,[1]; 30 min post-injection,1.37 ± 0.48 % ID/g
same,% ID/g Striatum,[1]; 30 min post-injection,1.12 ± 0.21 % ID/g
same,% ID/g Thalamus,[1]; 30 min post-injection,1.18 ± 0.30 % ID/g
same,% ID/g Blood,[1]; 60 min post-injection,0.19 ± 0.03 % ID/g
same,% ID/g Cerebellum,[1]; 60 min post-injection,0.21 ± 0.04 % ID/g
same,% ID/g Frontal Ctx.,[1]; 60 min post-injection,1.37 ± 0.10 % ID/g
same,% ID/g Hippocamp.,[1]; 60 min post-injection,0.84 ± 0.10 % ID/g
same,% ID/g Hypothal.,[1]; 60 min post-injection,1.27 ± 0.16 % ID/g
same,% ID/g Striatum,[1]; 60 min post-injection,1.02 ± 0.15 % ID/g
same,% ID/g Thalamus,[1]; 60 min post-injection,1.29 ± 0.22 % ID/g
same,Clearance,[2],47 ± 11 L/h
same,Cerebellum V (nonspecific distribution volume),SERT [3],32 ± 6 mL/g
same,Thalamus V3″,SERT [4],2.26
same,Clearance of the parent compound,[5],31 L/h
same,Percent plasma activity corresponding to the parent compound,[5]; 2 minutes,75.6%
same,Percent plasma activity corresponding to the parent compound,[5]; 4 minutes,55.4%
same,Percent plasma activity corresponding to the parent compound,[5]; 12 minutes,21.4%
same,Percent plasma activity corresponding to the parent compound,[5]; 30 minutes,9.4%
same,Percent plasma activity corresponding to the parent compound,[5]; 60 minutes,6.4%
same,Percent plasma activity corresponding to the parent compound,[5]; 90 minutes,6.7%
CN(C)Cc1ccccc1Sc1ccc(C#N)cc1N [[^11C]DASB],Data acquisition required to derive stable VT values in all regions,"SERT [6]; humans (Ginovart et al., 2001)",no more than 80 minutes
same,V3″ occipital cortex,"SERT [6]; humans, literature",0.51±0.09
same,VT CER (cerebellum distribution volume),"SERT [6]; humans, literature",11.8 ± 1.5 mL/g
same,Parent fraction in plasma at 30 minutes,[7],40±7%
same,f1 (plasma free fraction),"[7]; n=5 (Ginovart et al., 2001)",11.0±1.2%
same,pKd,SERT [8],8.96
[11CH3]Sc1ccc([C@H]2CN3CCC[C@H]3c3ccccc32)cc1 [[^11C]McN 5652],V3″ medial prefrontal cortex,"SERT [6]; humans (Parsey et al., 2000)",0.08
same,V3″ cingulate cortex,"SERT [6]; humans, literature",0.21
same,V3″ hippocampus,"SERT [6]; humans, literature",0.49
same,V3″ midbrain,"SERT [6]; humans, literature",1.63
same,V3″ occipital cortex,"SERT [6]; humans, literature",0.17
same,V3″ striatum,"SERT [6]; humans, literature",1.03
same,V3″ temporal cortex,"SERT [6]; humans, literature",0.22
same,V3″ thalamus,"SERT [6]; humans, literature",0.92
same,VT CER (cerebellum distribution volume),"SERT [6]; humans, literature",17.8 ± 1.9 mL/g and 11.9 ± 3.3 mL/g
same,Data acquisition required for time-independent / stable VT or BP estimates,"SERT [6]; humans, regions with high SERT density such as the midbrain (Parsey et al., 2000)",at least 120 minutes
same,Parent fraction in plasma at 30 minutes,[7],59±10%
